For 24 molecules, IC50 results are on record in patent US20150353495A1 (PORTOLA PHARMACEUTICALS, INC., priority 2010, published 2015).

What all share (format): biochemical
In experiment [1] the target is T1, JAK1 (Homo sapiens, UniProt P23458).
T1 construct: 5 μl of catalytic domain recombinant Kinase enzyme+Tyr peptide substrate (Invitrogen, CA); purchased Invitrogen
The experiment is described as follows: Z'-LYTE kinase assay JAK1. As for the experimental part: (§1) JAK and TYK2 tyrosine phosphorylation activity is measured using the Z′-LYTE™ Technology developed by Invitrogen Corporation (Carlsbad, Calif.). For JAK1, JAK2 and JAK3 the Z′-LYTE™ Kinase Assay Kit-Tyr6 Peptide (part number PV4122) was used. For TYK2 the Z′-LYTE™ Kinase Assay Kit-Tyr6 Peptide (part number PV3192) was used. The Z′-LYTE™ biochemical assay employs a fluorescence resonance energy transfer (FRET) coupled-enzyme format and is based on the differential sensitivity of phosphorylated and non-phosphorylated peptides to proteolitic cleavage. The assay uses a synthetic peptide substrate that is labelled with a donor fluorophore (coumarin) and an acceptor fluorophore (fluorescein) that make up a FRET pair. In the primary reaction (the Kinase Reaction), the kinase transfers the γ-phosphate of ATP to a single tyrosine residue on the substrate, while the presence of a kinase inhibitor in the primary reaction suppresses phosphorylation. In the secondary reaction (the Development Reaction), a site-specific protease (the Development Reagent) is added. The development buffer quenches the Kinase Reaction, while the protease recognizes and cleaves non-phosphorylated Z′-LYTE™ peptide substrate. Cleavage disrupts FRET between the donor and acceptor fluorophores on the non-phosphoryleted substrate, while uncleaved, phosphorylated substrate maintains FRET.
(§2) To test the ability of candidate molecules to inhibit JAK tyrosine phosphorylation activity, molecules are reconstituted in 100% DMSO and serially diluted 1:10 in polypropylene v-bottom microtiter plates. The candidate molecules are then diluted 1:25 into kinase buffer and 2.5 μl transferred into duplicate wells of a 384 well low volume black microtiter assay plate (Corning, USA). The final DMSO concentration in the assay is 1%. The kinase reaction contains 2.5 μl of a candidate molecule, 5 μl of catalytic domain recombinant Kinase enzyme+Tyr peptide substrate (Invitrogen, CA) and 2.5 μl ATP (Invitrogen, CA). The kinase reaction is allowed to procede for 1 hour at room temperature. The protease reaction is initiated by the addition of 5 μl Development Reagent (Invitrogen, CA). After 1 hour incubation at room temperature the fluorescence is measured using a FlexStation plate reader (Molecular Devices, Sunnyvale, Calif.).

Experiment [2] has as its target T2, JAK2 (Homo sapiens, UniProt O60674).
T2 construct: 5 μl of catalytic domain recombinant Kinase enzyme+Tyr peptide substrate (Invitrogen, CA); purchased Invitrogen
As to the kind of experiment: Z'-LYTE kinase assay JAK2. As for the experimental part:
as §1, §2

In experiment [3] the target is T3, JAK3 (Homo sapiens, UniProt P52333).
T3 construct: 5 μl of catalytic domain recombinant Kinase enzyme+Tyr peptide substrate (Invitrogen, CA); purchased Invitrogen
As to the kind of experiment: Z'-LYTE kinase assay JAK3. Here is the method:
as §1, §2

Where only a bound is given, the exact number is not on record here.

T3 sequence (P52333 822-1111 limits assumed): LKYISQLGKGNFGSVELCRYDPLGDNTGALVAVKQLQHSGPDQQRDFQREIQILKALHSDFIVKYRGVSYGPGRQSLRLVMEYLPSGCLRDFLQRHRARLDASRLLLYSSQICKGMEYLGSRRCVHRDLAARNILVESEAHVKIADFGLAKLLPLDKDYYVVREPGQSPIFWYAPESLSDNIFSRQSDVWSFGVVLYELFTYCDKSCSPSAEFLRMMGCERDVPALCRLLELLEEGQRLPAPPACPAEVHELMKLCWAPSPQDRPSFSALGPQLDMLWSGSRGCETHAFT
T1 sequence (P23458 875-1153 limits assumed): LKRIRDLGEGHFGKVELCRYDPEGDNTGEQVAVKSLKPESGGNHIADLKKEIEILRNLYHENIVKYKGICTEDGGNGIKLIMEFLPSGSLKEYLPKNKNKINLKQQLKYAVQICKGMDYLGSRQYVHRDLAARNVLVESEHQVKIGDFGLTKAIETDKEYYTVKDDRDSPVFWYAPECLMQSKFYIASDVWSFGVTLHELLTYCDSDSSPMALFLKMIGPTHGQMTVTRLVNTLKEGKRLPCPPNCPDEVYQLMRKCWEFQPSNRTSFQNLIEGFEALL
T2 sequence (O60674 849-1124 limits assumed): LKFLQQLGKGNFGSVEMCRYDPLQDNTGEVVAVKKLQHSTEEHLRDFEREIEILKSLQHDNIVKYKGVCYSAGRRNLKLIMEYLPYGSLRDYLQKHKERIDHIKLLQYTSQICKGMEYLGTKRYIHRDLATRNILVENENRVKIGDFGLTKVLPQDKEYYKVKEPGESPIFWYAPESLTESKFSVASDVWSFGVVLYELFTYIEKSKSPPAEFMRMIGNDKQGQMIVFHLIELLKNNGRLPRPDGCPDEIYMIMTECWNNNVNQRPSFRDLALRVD

Regarding `COCC(=O)N1CC(c2ccc(Nc3cc(NCc4cccc5ccsc45)c(C(N)=O)cn3)cc2)C1` [Example 495, 4-(benzo[b]thiophen-7-ylmethylamino)-6-(4-(1-(2-methoxyacetyl)azetidin-3-yl)phenylamino)nicotinamide], the IC50 – broadly, the concentration at which inhibition is half-maximal – in experiment [1] fell in the range of 100 to 1000 nM; in experiment [2] it was 10 to 100 nM; in experiment [3], 1 to 10 nM.
As to `NC(=O)c1cnc(Nc2ccc(S(=O)(=O)N3CCC3)cc2)nc1NCc1ccccc1` [Example 434, 2-(4-(azetidin-1-ylsulfonyl)phenylamino)-4-(benzylamino)pyrimidine-5-carboxamide], the figures for the IC50 in experiment [1], in experiment [2] and in experiment [3] were greater than 1000 nM, 100 to 1000 nM and 10 to 100 nM, respectively.
For `CCC(=O)N1CCC(c2ccc(Nc3cc(NCC4(c5ccccc5)CC4)c(C(N)=O)cn3)cc2)CC1` [Example 194, 4-((1-phenylcyclopropyl)methylamino)-6-(4-(1-propionylpiperidin-4-yl)phenylamino)nicotinamide], the IC50 is greater than 1000 nM in experiment [1], greater than 1000 nM in experiment [2] and 100 to 1000 nM in experiment [3].
With `CCC(=O)N1CC(c2ccc(Nc3cc(NCc4cccc5[nH]ccc45)c(C(N)=O)cn3)cc2)C1` [Example 492, 4-((1H-indol-4-yl)methylamino)-6-(4-(1-propionylazetidin-3-yl)phenylamino)nicotinamide], the values for the IC50 in experiment [1], in experiment [2] and in experiment [3] were 10 to 100 nM, 1 to 10 nM and 1 to 10 nM, respectively.
With `CS(=O)(=O)Cc1ccc(Nc2cc(NCc3cccc4ccsc34)c(C(N)=O)cn2)cc1` [Example 346, 4-(benzo[b]thiophen-7-ylmethylamino)-6-(4-(methylsulfonylmethyl)phenylamino)nicotinamide], the IC50 in experiment [1] was 10 to 100 nM; in experiment [2], 10 to 100 nM; in experiment [3], less than 1 nM.
With `NC(=O)c1cnc(Nc2cccc(C3CCOCC3)c2)cc1NCc1cncc(F)c1` [Example 208, 4-((5-fluoropyridin-3-yl)methylamino)-6-(3-(tetrahydro-2H-pyran-4-yl)phenylamino)nicotinamide], the IC50 in experiment [1] fell in the range of 100 to 1000 nM; in experiment [2] it was 10 to 100 nM; in experiment [3] it was 1 to 10 nM.
In the case of `COCC(=O)N1CC(c2ccc(Nc3cc(NCc4cccc(F)n4)c(C(N)=O)cn3)cc2)C1` [Example 493, 4-((6-fluoropyridin-2-yl)methylamino)-6-(4-(1-(2-methoxyacetyl)azetidin-3-yl)phenylamino)nicotinamide], the IC50 in experiment [1] lay within 100 to 1000 nM; in experiment [2], 100 to 1000 nM; in experiment [3], 10 to 100 nM.
As to `CN(C)C(=O)Cc1ccc(Nc2cc(NCc3ccccc3)c(C(N)=O)cn2)cc1` [Example 328, 4-(benzylamino)-6-(4-(2-(dimethylamino)-2-oxoethyl)phenylamino)nicotinamide], the IC50 in experiment [1] fell in the range of 100 to 1000 nM; in experiment [2], 100 to 1000 nM; in experiment [3] it was 1 to 10 nM.
Take `NC(=O)c1cnc(Nc2ccc(OC(F)F)cc2)cc1NCc1cncc(F)c1` [Example 309, 6-(4-(difluoromethoxy)phenylamino)-4-((5-fluoropyridin-3-yl)methylamino)nicotinamide]: the IC50 in experiment [1] is greater than 1000 nM; in experiment [2], 100 to 1000 nM; in experiment [3], 10 to 100 nM.
In the same order, the values of `CC(=O)N1CCC[C@H](CNc2cc(Nc3ccc(C(=O)N(C)C)c(N(C)C)c3)ncc2C(N)=O)C1` [Example 445, (R)-4-((1-acetylpiperidin-3-yl)methylamino)-6-(3-(dimethylamino)-4-(dimethylcarbamoyl)phenylamino)nicotinamide] are greater than 1000 nM, 100 to 1000 nM and 100 to 1000 nM.
`Cc1cc(Nc2cc(NCc3cccc4[nH]ccc34)c(C(N)=O)cn2)ccc1C(=O)N1CCC1` [Example 460, 4-((1H-indol-4-yl)methylamino)-6-(4-(azetidine-1-carbonyl)-3-methylphenylamino)nicotinamide]: the IC50 in experiment [1] is 1 to 10 nM; in experiment [2], 1 to 10 nM; in experiment [3], less than 1 nM.
`NC(=O)c1cnc(Nc2ccc(N3CCOCC3)cc2)cc1NC1(c2ccccc2)CC1` [Example 125, 6-(4-morpholinophenylamino)-4-(1-phenylcyclopropylamino)-nicotinamide]: the IC50 in experiment [1] is greater than 1000 nM; in experiment [2], 100 to 1000 nM; in experiment [3], 10 to 100 nM.
In the same order, the values of `CCS(=O)(=O)N1CCC(Nc2cc(Nc3ccc(C4CCOCC4)cc3)ncc2C(N)=O)CC1` [Example 166, 4-(1-(ethylsulfonyl)piperidin-4-ylamino)-6-(4-(tetrahydro-2H-pyran-4-yl)phenylamino)nicotinamide] are greater than 1000 nM, 100 to 1000 nM and 100 to 1000 nM.
In the same order, the values of `NC(=O)c1cnc(Nc2cccc(N3CCOCC3)c2)cc1NC1(c2ccccc2)CC1` [Example 128, 6-(3-morpholinophenylamino)-4-(1-phenylcyclopropylamino)-nicotinamide] are greater than 1000 nM, greater than 1000 nM and 10 to 100 nM.
Take `CN(C)C(=O)C1CCN(c2ccc(Nc3cc(NCc4ccccc4)c(C(N)=O)cn3)cc2)CC1` [Example 343, 4-(benzylamino)-6-(4-(4-(dimethylcarbamoyl)piperidin-1-yl)phenylamino)nicotinamide]: the figures for the IC50 in experiment [1], in experiment [2] and in experiment [3] were 100 to 1000 nM, 10 to 100 nM and 1 to 10 nM, respectively.
As for `N#Cc1ccc(Nc2cc(NCc3cncc(F)c3)c(C(N)=O)cn2)cc1` [Example 308, 6-(4-cyanophenylamino)-4-((5-fluoropyridin-3-yl)methylamino)nicotinamide], the results for the IC50 in experiment [1], in experiment [2] and in experiment [3] were greater than 1000 nM, greater than 1000 nM and 10 to 100 nM, respectively.
With `CC(=O)N1CCC(CNc2cc(Nc3ccc(C(=O)N4CCC4)cc3)ncc2C(N)=O)CC1` [Example 50, 4-((1-acetylpiperidin-4-yl)methylamino)-6-(4-(azetidine-1-carbonyl)phenylamino)nicotinamide], the IC50 in experiment [1], in experiment [2] and in experiment [3] was greater than 1000 nM in each case.
Take `NC(=O)c1cnc(Nc2ccc(C3CCOCC3)cc2)cc1NCc1cccnc1` [Example 185, 4-(pyridin-3-ylmethylamino)-6-(4-(tetrahydro-2H-pyran-4-yl)phenylamino)nicotinamide]: the IC50 in experiment [1] lay within 100 to 1000 nM; in experiment [2], 100 to 1000 nM; in experiment [3], 10 to 100 nM.
Turning to `NC(=O)c1cnc(Nc2cc(F)cc(F)c2)cc1NCc1cccc2[nH]ccc12` [Example 323, 4-((1H-indol-4-yl)methylamino)-6-(3,5-difluorophenylamino)nicotinamide], the IC50 was greater than 1000 nM in experiment [1], greater than 1000 nM in experiment [2] and 100 to 1000 nM in experiment [3].
Consider `NC(=O)c1cnc(Nc2cccc(C3CCNCC3)c2)cc1NCc1ccccc1F` [Example 120, 4-(2-fluorobenzylamino)-6-(3-(piperidin-4-yl)phenylamino)nicotinamide], for which the IC50 is 100 to 1000 nM in experiment [1], 10 to 100 nM in experiment [2] and 1 to 10 nM in experiment [3].
On to `CC(C)CNc1cc(Nc2ccc(C3CCOCC3)cc2)ncc1C(N)=O` [Example 156, 4-(isobutylamino)-6-(4-(tetrahydro-2H-pyran-4-yl)phenylamino)nicotinamide], for which the IC50 in experiment [1], in experiment [2] and in experiment [3] was 100 to 1000 nM throughout.
Regarding `CN(C)C(=O)c1cccc(Nc2cc(NCC3CCCC3)c(C(N)=O)cn2)c1` [Example 95, 4-(cyclopentylmethylamino)-6-(3-(dimethylcarbamoyl)phenylamino)nicotinamide], the IC50 lay within 100 to 1000 nM in experiment [1], 100 to 1000 nM in experiment [2] and 10 to 100 nM in experiment [3].
For the molecule `CN(C)S(=O)(=O)Cc1ccc(Nc2cc(NCc3cccc(-c4ccncc4)c3)c(C(N)=O)cn2)cc1` [Example 417, 6-(4-((N,N-dimethylsulfamoyl)methyl)phenylamino)-4-(3-(pyridine-4-yl)benzylamino)nicotinamide], the IC50 lay within 100 to 1000 nM in experiment [1], 100 to 1000 nM in experiment [2] and 1 to 10 nM in experiment [3].
With `CCC(=O)N1CCC(c2ccc(Nc3cc(NC4(c5ccccc5)CC4)c(C(N)=O)cn3)cc2)CC1` [Example 375, 4-(1-phenylcyclopropylamino)-6-(4-(1-propionylpiperidin-4-yl)phenylamino)nicotinamide], the IC50 in experiment [1] is greater than 1000 nM; in experiment [2] it was greater than 1000 nM; in experiment [3] it was 10 to 100 nM.
